Experimental data taken from patent US20220265817A1, “THERAPEUTIC COMPOSITIONS AND METHODS FOR TREATING HEPATITIS B” (priority 2017, published 2022).
Like-named read-outs stand apart in the source and are kept apart here. [UNA] = unlocked nucleic acid; m = 2'-O-methyl; r = 2'-OH (RNA)

Assays:
HBV genome = experiment: siRNA IC50 (Table A); design: species or system Hepatitis B virus
[1] = tested on: HBV rcDNA in HepDE19 cells; experiment: HepDE19 cell culture system, rcDNA quantitation using bDNA assay, MacSynergy II; format: cell-based, human hepatoma cell line; conditions: Hepatitis B virus
Description: In vitro combination studies were conducted using the method of Prichard and Shipman (Prichard M N, and Shipman C Jr., Antiviral Research, 1990, 14 (4-5), 181-205; and Prichard M N, et. al., MacSynergy II). HepDE19 cell culture system is a HepG2 (human hepatocarcinoma) derived cell line that supports HBV DNA replication and cccDNA formation in a tetracycline (Tet)-regulated manner and produces HBV rcDNA and a detectable reporter molecule dependent on the production and maintenance of cccDNA (Guo et al 2007. J. Virol 81:12472-12484). HepDE19 (50,000 cells/well) were plated in 96 well collagen-coated tissue-culture treated microtiter plates in DMEM/F12 medium supplemented with 10% fetal bovine serum, 1% penicillin-streptomycin and 1 μg/ml tetracycline and incubated in a humidified incubator at 37° C. and 5% CO2 overnight. Next day, the cells were switched to fresh medium without tetracycline and incubated for 4 hrs at 37° C. and 5% CO2. […] The two inhibitors were tested both singly as well as in combinations in a checkerboard fashion such that each concentration of inhibitor A was combined with each concentration of inhibitor B to determine their combination effects on inhibition of rcDNA production. Following a 7 day-incubation of cells with compound combinations, the level of rcDNA present in the inhibitor-treated wells was measured using a Quantigene 2.0 bDNA assay kit (Affymetrix, Santa Clara, Calif.) with HBV specific custom probe set and manufacturers instructions. […] The RLU data from the single compound treated cells were analyzed using XL-Fit module in Microsoft Excel to determine EC50 values using a 4-parameter curve fitting algorithm. Concurrently, the effect of compounds on cell viability was assessed using replicate plates, plated at a density of 5,000 cells/well and incubated for 4 days, to determine the ATP content as a measure of cell viability using the cell-titer glo reagent (CTG; Promega Corporation, Madison, Wis.) as per manufacturer's instructions.
In vitro combination studies were conducted using the method of Prichard and Shipman (Prichard M N, Shipman C, Jr., Antiviral Res, 14, 181-205 (1990)). The HepDE19 cell line was developed as described in Guo et al. (Guo et al., J Virol, 81, 12472-12484 (2007)). It is a human hepatoma cell line stably transfected with the HBV genome, and which can express HBV pregenomic RNA and support HBV rcDNA (relaxed circular DNA) synthesis in a tetracycline-regulated manner. HepDE19 cells were plated in 96 well tissue-culture treated microtiter plates in DMEM/F12 medium supplemented with 10% fetal bovine serum+1% penicillin-streptomycin without tetracycline and incubated in a humidified incubator at 37° C. and 5% CO2 overnight. […] The two inhibitors were tested both singly as well as in combinations in a checkerboard fashion such that each concentration of inhibitor A was combined with each concentration of inhibitor B to determine their combination effects on inhibition of rcDNA production. Following a 48 hour-incubation, the level of rcDNA present in the inhibitor-treated wells was measured using a bDNA assay (Affymetrix) with HBV specific custom probe set and manufacturers instructions. […] Concurrently, the effect of inhibitor combinations on cell viability was assessed using replicate plates that were used to determine the ATP content as a measure of cell viability using the Cell-TiterGlo reagent (Promega) as per manufacturer's instructions.
In vitro combination studies were conducted using the method of Prichard and Shipman (1990) (Prichard M N, Shipman C, Jr. 1990. A three-dimensional model to analyze drug-drug interactions. Antiviral Res 14:181-205 AND Prichard M N. 1992. MacSynergy II, University of Michigan).

[2] = tested on: D type HBV in primary human hepatocytes; experiment: microbe, parasite or virus in culture; format: cell-based; conditions: for AVERAGE % INHIBITION: COMPOUND 22 0 nM
Description: (§1) The mouse liver perfusion was applied to isolate PHHs. The isolated hepatocytes were further purified by Percoll. The cells were resuspended with culture media and seeded into the 96-well plates (6×10^4 cell/well) or 48-well plates (1.2×10^5 cell/well). The PHHs were infected with a D type HBV one day post seeding (day 1).
(§2) On day 2, the test compounds were diluted and added into the cell culture plates. The culture media containing the compounds were refreshed every other day. The cell culture supernatants were collected on day 8 for the HBV DNA and antigen determinations.
(§3) The compounds were tested at 7 concentrations, 3-fold dilution, in triplicate.
(§4) Two compounds were tested at 5×5 matrix, in triplicate plates.
DNA in the culture supernatants harvested on days 8 were isolated with QIAamp 96 DNA Blood Kit (Qiagen-51161). For each sample, 100 μl of the culture supernatants was used to extract DNA. The DNA was eluted with 100 μl, 150 μl or 180 μl of AE. HBV DNA in the culture supernatants was quantified by qPCR. The combination effect was analyzed by the MacSynergy software. The primers are described below.

[3] = tested on: D type HBV in primary human hepatocytes (HBsAg); experiment: microbe, parasite or virus in culture; format: cell-based; conditions: for AVERAGE % INHIBITION: COMPOUND 22 0 nM
Description: as §1, §2, §3, §4
(§5) HBsAg/HBeAg in the culture supernatants harvested on days 8 were measured by the HBsAg/HBeAg ELISA kit (Autobio) according to the manual. The samples were diluted with PBS to get the signal in the range of the standard curve. The inhibition rates were calculated with the formula below. The combination effect was analyzed by the MacSynergy software.
% Inh. HBsAg=[1-HBsAg quantity of sample/HBV quantity of DMSO control]×100.

[4] = tested on: D type HBV in primary human hepatocytes (HBeAg); experiment: microbe, parasite or virus in culture; format: cell-based
Description: as §1, §2, §3, §4, §5
% Inh. HBeAg=[1-HBeAg quantity of sample/HBV quantity of DMSO control]×100.

[5] = HepDE19, read-out: AVERAGE % INHIBITION
[6] = Hepatitis B virus, Hepatocyte, read-out: AVERAGE % […] DNA
[7] = Hepatitis B virus, Hepatocyte, read-out: Inhibitor A EC50
[8] = Hepatitis B virus, Hepatocyte, read-out: Inhibitor EC50
[9] = Hepatitis B virus, Hepatocyte, read-out: AVERAGE % INHIBITION HBsAg

1m: siRNA duplex SEQ ID NO: 1 and 2 targeting the HBV genome (chain 1 AGGUAUGUUGCCCGUUUGUUU; chain 2 ACAAACGGGCAACAUACCUUU; chain 1: sugars from the 5' end [UNA]mrmrrmmrrrrrmrmrrr[UNA][UNA], backbone not given here; chain 2: sugars from the 5' end rrrrrrmrrrrrrrmrrrr[UNA][UNA], backbone not given here) [Compound 1m]
IC50 (HBV genome): 1430 pM

2m: siRNA duplex SEQ ID NO: 3 and 4 targeting the HBV genome (chain 1 GCUCAGUUUACUAGUGCCAUU; chain 2 UGGCACUAGUAAACUGAGCUU; chain 1: sugars from the 5' end [UNA]rmmrmrrrrrrrrrrrmrr[UNA], backbone not given here; chain 2: sugars from the 5' end r9 m1 r7 m1 r3, backbone not given here) [Compound 2m]
IC50 (HBV genome): 370 pM

3m: siRNA duplex SEQ ID NO: 5 and 6 targeting the HBV genome (chain 1 CCGUGUGCACUUCGCUUCAUU; chain 2 UGAAGCGAAGUGCACACGGUU; chain 1: sugars from the 5' end [UNA]rrrmmrrrrrmrrrmmrr[UNA][UNA], backbone not given here; chain 2: sugars from the 5' end rrrrrrrrrrrmrrrrrmr[UNA][UNA], backbone not given here) [Compound 3m]
IC50 (HBV genome): 60 pM

4m: siRNA duplex SEQ ID NO: 7 and 8 targeting the HBV genome (chain 1 GCUCAGUUUACUAGUGCCAUU; chain 2 UGGCACUAGUAAACUGAGCUU; chain 1: sugars from the 5' end [UNA]rmmrmrrrrrrrrrrrmr[UNA][UNA], backbone not given here; chain 2: sugars from the 5' end rrrrrrrrrmrrrrrrrmr[UNA][UNA], backbone not given here) [Compound 4m]
IC50 (HBV genome): 310 pM

5m: siRNA duplex SEQ ID NO: 9 and 10 targeting the HBV genome (chain 1 CCGUGUGCACUUCGCUUCAUU; chain 2 UGAAGCGAAGUGCACACGGUU; chain 1: sugars from the 5' end [UNA]rrrmmrrrrrmrrrmrrrr[UNA], backbone not given here; chain 2: sugars from the 5' end r11 m1 r5 m1 r3, backbone not given here) [Compound 5m]
IC50 (HBV genome): 60 pM

6m: siRNA duplex SEQ ID NO: 11 and 12 targeting the HBV genome (chain 1 CUGGCUCAGUUUACUAGUGUU; chain 2 CACUAGUAAACUGAGCCAGUU; chain 1: sugars from the 5' end [UNA]mmmrrrrrrrrrrmrmrrr[UNA], backbone not given here; chain 2: sugars from the 5' end rrrrrmrrrrrrmrmrrrrrr, backbone not given here) [Compound 6m]
IC50 (HBV genome): 50 pM

7m: siRNA duplex SEQ ID NO: 13 and 14 targeting the HBV genome (chain 1 CCGUGUGCACUUCGCUUCAUU; chain 2 UGAAGCGAAGUGCACACGGUU; chain 1: sugars from the 5' end [UNA]rrrmmrrrrrmrrrmrrr[UNA][UNA], backbone not given here; chain 2: sugars from the 5' end rrrrrrrrrrrmrrrrrmr[UNA][UNA], backbone not given here) [Compound 7m]
IC50 (HBV genome): 60 pM

CC(C)OC(=O)[C@H](C)N[P@](=O)(CO[C@H](C)Cn1cnc2c(N)ncnc21)Oc1ccccc1 [TAF, tenofovir alafenamide, reference compound]
inhibition at 0.000781 µM [1, 5]: -4.76%
inhibition at 0.001563 µM [1, 5]: 3.49%
inhibition at 0.003125 µM [1, 5]: 0.6%
inhibition at 0.00625 µM [1, 5]: 10.6%
inhibition at 0.0125 µM [1, 5]: 28.6%
inhibition at 0.025 µM [1, 5]: 20%
inhibition at 0.05 µM [1, 5]: 53.2%
inhibition at 0.1 µM [1, 5]: 77.6%
inhibition at 0.2 µM [1, 5]: 89.9%
EC50 ([1]; HepDE19, read-out: Inhibitor B EC50): 44500 pM
inhibition at 50 pM [2, 6]: -8.77%
inhibition at 0.00012 µM [2, 6]: 6.36%
inhibition at 0.00037 µM [2, 6]: 11.6%
inhibition at 0.00041 µM [2, 6]: 28.8%
inhibition at 0.00123 µM [2, 6]: 63.4%
inhibition at 0.00333 µM [2, 6]: 42.6%
inhibition at 0.0037 µM [2, 6]: 78.3%
inhibition at 0.01 µM [2, 6]: 43.3%
EC50 [2, 7]: 405 pM
EC50 [2, 8]: 405 pM
AVERAGE % INHIBITION ([2]; TAF 0.12 nM): −2.6%
AVERAGE % INHIBITION ([2]; TAF 0.37 nM): −1.92%
AVERAGE % INHIBITION ([2]; TAF 3.33 nM): 40.16%
AVERAGE % INHIBITION ([2]; TAF 10.00 nM): 50.21%
AVERAGE % INHIBITION ([2]; TAF […]): 4.95%
inhibition at 50 pM [3, 9]: -7.35%
inhibition at 0.00012 µM [3, 9]: 23%
inhibition at 0.00014 µM [3, 9]: 12.8%
inhibition at 0.00037 µM [3, 9]: 7.04%
inhibition at 0.00041 µM [3, 9]: 11.3%
inhibition at 0.00123 µM [3, 9]: 11%
inhibition at 0.00333 µM [3, 9]: 16.1%
inhibition at 0.0037 µM [3, 9]: -6.72%
inhibition at 0.01 µM [3, 9]: 6.38%
EC50 [3, 7]: > 100000 pM
EC50 [3, 8]: > 100000 pM
AVERAGE % INHIBITION ([3]; TAF 0.1234568 nM): 29.82%
AVERAGE % INHIBITION ([3]; TAF 0.3703704 nM): 10.78%
AVERAGE % INHIBITION ([3]; TAF 1.1111111 nM): 20.81%
AVERAGE % INHIBITION ([3]; TAF 3.3333333 nM): 9.06%
AVERAGE % INHIBITION ([3]; TAF 10 nM): 7.97%
EC50 [4, 8]: > 100000 pM
AVERAGE % INHIBITION ([4]; TAF 0.05 nM, COMPOUND 3 0.00 nM): 1.17%
AVERAGE % INHIBITION ([4]; TAF 0.12 nM, COMPOUND 22 0 nM): 26.61%
AVERAGE % INHIBITION ([4]; TAF 0.14 nM, COMPOUND 3 0.00 nM): −2.78%
AVERAGE % INHIBITION ([4]; TAF 0.37 nM, COMPOUND 22 0 nM): 9.9%
AVERAGE % INHIBITION ([4]; TAF 0.41 nM, COMPOUND 3 0.00 nM): 1.76%
AVERAGE % INHIBITION ([4]; TAF 1.23 nM, COMPOUND 3 0.00 nM): 9.91%
AVERAGE % INHIBITION ([4]; TAF 3.33 nM, COMPOUND 22 0 nM): 19.69%
AVERAGE % INHIBITION ([4]; TAF 3.70 nM, COMPOUND 3 0.00 nM): 11.87%
AVERAGE % INHIBITION ([4]; TAF 10.00 nM, COMPOUND 22 0 nM): 22.85%
AVERAGE % INHIBITION ([4]; TAF […], COMPOUND 22 0 nM): 22.56%
